Test system: moderate-to-severe chronic spontaneous urticaria (CSU)
Test: Phase 2 CSU study: urticaria activity score over 7 days (UAS7)
Format: in vivo, human
Parameters: key to UAS7 Median / UAS7 Change from baseline Median / UAS7 change from baseline, Q1 / UAS7 change from baseline, Q3 / UAS7 change from baseline, Max / UAS7 Change from baseline LS Mean (SE): UAS7 points; daily UAS score ranges 0–6 points/day, over 7 days
Conditions: for UAS7 Post-baseline Mean (SD) / UAS7 % Change difference for rilzabrutinib vs. placebo LS Mean (95% CI) / UAS7 % Change from baseline LS Mean (SE) / UAS7 Change difference for rilzabrutinib vs. placebo LS Mean (95% CI) / UAS7 Change from baseline LS Mean (SE): Omalizumab-Naïve Population; for Change from Baseline in UAS7 at Week 12: LS Mean (SE) / Change from Baseline in UAS7 at Week 12: LS Mean Diff vs. placebo (95% CI) / Change from Baseline in UAS7 at Week 12: Mean (SD): Omalizumab-Naïve
Text: The study comprises a 12 week, randomized, double-blind, placebo-controlled, multi-center, dose-ranging efficacy and safety phase, followed by a 40 week open label extension (OLE) phase (see FIG. 1). The study consists of three phases and an optional OLE phase. […] Clinically, CSU is characterized by the spontaneous and recurrent appearance of pruritic hives. The proposed primary endpoints were the UAS7 at Week 12 in EU and EU reference countries and the ISS7 in the US. Regardless of where a participant was from, all assessments were the same. The UAS7 score is a composite score containing both the HSS7 and the ISS7. This allowed a global assessment of the two key components of urticaria: hives and itch. […] The UAS is a validated PRO measure. […] The daily UAS scores range from 0 to 6 point/day. […] Patients were to complete the UAS using the e-diary. […] The following secondary endpoints were to be analyzed using the same approach as for the primary endpoint: • Change from baseline in UAS7 at Week 4 • Change from baseline in UAS7 at Week 12 (for US and US reference countries) • Change from baseline in ISS7 at Week 12 (except US and US reference countries) • Change from baseline in HSS7 at Week 12 The following responder secondary endpoints were to be analyzed using the Cochran-Mantel-Haenszel test adjusted by region: • Proportion of participants with UAS7<6 at Week 12 • Proportion of participants with UAS7=0 at Week 12 Participants who received selected prohibited medications and/or rescue medications were to be considered as non-responders for time points after the medication usage. For other participants, all available data including those collected during the off-treatment period were to be used to determine the responder/non-responder status. Missing data were to be considered as non-responders.

[1] = Age group (years) <44 (Median), 400 mg BID
[2] = Age group (years) <44 (Median), 400 mg QPM
[3] = Age group (years) <44 (Median), 400 mg TID
[4] = Age group (years) <65, 400 mg BID
[5] = Age group (years) <65, 400 mg QPM
[6] = Age group (years) <65, 400 mg TID
[7] = Age group (years) ≥44 (Median), 400 mg BID

CC(C)(C=C(C#N)C(=O)N1CCC[C@@H](n2nc(-c3ccc(Oc4ccccc4)cc3F)c3c(N)ncnc32)C1)N1CCN(C2COC2)CC1 [rilzabrutinib, (R)-2-[3-[4-amino-3-(2-fluoro-4-phenoxy-phenyl)pyrazolo[3,4-d]pyrimidin-1-yl]piperidine-1-carbonyl]-4-methyl-4-[4-(oxetan-3-yl)piperazin-1-yl]pent-2-enenitrile]
UAS7 Post-baseline Mean (SD) (400 mg QPM, Week 3): 22.01 (9.00)
UAS7 % Change difference for rilzabrutinib vs. placebo LS Mean (95% CI) (400 mg QPM, Week 4): −8.22%
UAS7 % Change from baseline LS Mean (SE) (400 mg QPM, Week 4): −28.63 (5.66) %
UAS7 Change difference for rilzabrutinib vs. placebo LS Mean (95% CI) (400 mg QPM, Week 4): −2.08
UAS7 Change from baseline LS Mean (SE) (400 mg QPM, Week 4): −9.14 (1.66)
UAS7 Post-baseline Mean (SD) (400 mg QPM, Week 4): 21.92 (8.82)
UAS7 Post-baseline Mean (SD) (400 mg QPM, Week 5): 20.63 (9.18)
UAS7 Post-baseline Mean (SD) (400 mg QPM, Week 6): 20.21 (10.42)
UAS7 Post-baseline Mean (SD) (400 mg QPM, Week 7): 21.11 (10.03)
UAS7 Post-baseline Mean (SD) (400 mg QPM, Week 9): 20.25 (10.25)
UAS7 Post-baseline Mean (SD) (400 mg QPM, Week 10): 20.27 (10.69)
UAS7 Post-baseline Mean (SD) (400 mg QPM, Week 11): 21.17 (11.16)
UAS7 % Change difference for rilzabrutinib vs. placebo LS Mean (95% CI) (400 mg QPM, Week 12): −4.51%
UAS7 % Change from baseline LS Mean (SE) (400 mg QPM, Week 12): −34.79 (6.80) %
UAS7 Change difference for rilzabrutinib vs. placebo LS Mean (95% CI) (400 mg QPM, Week 12): 0.40
UAS7 Change from baseline LS Mean (SE) (400 mg QPM, Week 12): −9.74 (2.00)
UAS7 % Change difference for rilzabrutinib vs. placebo LS Mean (95% CI) (400 mg TID, Week 1): −27.13%
UAS7 % Change from baseline LS Mean (SE) (400 mg TID, Week 1): −36.60 (5.66) %
UAS7 Change difference for rilzabrutinib vs. placebo LS Mean (95% CI) (400 mg TID, Week 1): −7.89
UAS7 Change from baseline LS Mean (SE) (400 mg TID, Week 1): −11.44 (1.56)
UAS7 Post-baseline Mean (SD) (400 mg TID, Week 1): 17.77 (10.26)
UAS7 % Change difference for rilzabrutinib vs. placebo LS Mean (95% CI) (400 mg TID, Week 2): −27.13%
UAS7 % Change from baseline LS Mean (SE) (400 mg TID, Week 2): −44.90 (5.51) %
UAS7 Change difference for rilzabrutinib vs. placebo LS Mean (95% CI) (400 mg TID, Week 2): −7.73
UAS7 Change from baseline LS Mean (SE) (400 mg TID, Week 2): −13.63 (1.56)
UAS7 Post-baseline Mean (SD) (400 mg TID, Week 2): 15.65 (10.66)
UAS7 % Change difference for rilzabrutinib vs. placebo LS Mean (95% CI) (400 mg TID, Week 3): −27.19%
UAS7 % Change from baseline LS Mean (SE) (400 mg TID, Week 3): −47.14 (5.69) %
UAS7 Change difference for rilzabrutinib vs. placebo LS Mean (95% CI) (400 mg TID, Week 3): −6.90
UAS7 Change from baseline LS Mean (SE) (400 mg TID, Week 3): −13.83 (1.65)
UAS7 Post-baseline Mean (SD) (400 mg TID, Week 3): 15.37 (9.87)
UAS7 % Change difference for rilzabrutinib vs. placebo LS Mean (95% CI) (400 mg TID, Week 4): −26.33%
UAS7 % Change from baseline LS Mean (SE) (400 mg TID, Week 4): −46.75 (5.92) %
UAS7 Change difference for rilzabrutinib vs. placebo LS Mean (95% CI) (400 mg TID, Week 4): −6.60
UAS7 Change from baseline LS Mean (SE) (400 mg TID, Week 4): −13.66 (1.72)
UAS7 Post-baseline Mean (SD) (400 mg TID, Week 4): 14.65 (9.61)
UAS7 Change difference for rilzabrutinib vs. placebo LS Mean (95% CI) (400 mg TID, Week 5): −5.10
UAS7 Change from baseline LS Mean (SE) (400 mg TID, Week 5): −15.54 (1.72)
UAS7 Post-baseline Mean (SD) (400 mg TID, Week 5): 13.41 (10.60)
UAS7 Post-baseline Mean (SD) (400 mg TID, Week 6): 14.10 (11.23)
UAS7 Post-baseline Mean (SD) (400 mg TID, Week 7): 13.54 (9.34)
UAS7 Post-baseline Mean (SD) (400 mg TID, Week 8): 13.36 (9.81)
UAS7 Post-baseline Mean (SD) (400 mg TID, Week 9): 12.57 (9.72)
UAS7 Post-baseline Mean (SD) (400 mg TID, Week 10): 12.61 (9.89)
UAS7 Post-baseline Mean (SD) (400 mg TID, Week 12): 11.00 (9.90)
Change from Baseline in UAS7 at Week 12: LS Mean (SE) [1]: −13.80 (2.95)
Change from Baseline in UAS7 at Week 12: LS Mean Diff vs. placebo (95% CI) [1]: −5.42 (−13.05, 2.21)
Change from Baseline in UAS7 at Week 12: Mean (SD) [1]: −11.98 (9.69)
Change from Baseline in UAS7 at Week 12: LS Mean (SE) [2]: −9.54 (2.74)
Change from Baseline in UAS7 at Week 12: Mean (SD) [2]: −10.45 (10.67)
Change from Baseline in UAS7 at Week 12: LS Mean (SE) [3]: −16.19 (3.68)
Change from Baseline in UAS7 at Week 12: LS Mean Diff vs. placebo (95% CI) [3]: −7.80 (−16.46, 0.86)
Change from Baseline in UAS7 at Week 12: Mean (SD) [3]: −18.69 (10.55)
Change from Baseline in UAS7 at Week 12: LS Mean (SE) [4]: −13.99 (2.04)
Change from Baseline in UAS7 at Week 12: LS Mean Diff vs. placebo (95% CI) [4]: −3.58 (−9.19, 2.03)
Change from Baseline in UAS7 at Week 12: Mean (SD) [4]: −13.91 (11.95)
Change from Baseline in UAS7 at Week 12: LS Mean (SE) [5]: −9.12 (1.96)
Change from Baseline in UAS7 at Week 12: LS Mean Diff vs. placebo (95% CI) [5]: 1.30 (−4.27, 6.86)
Change from Baseline in UAS7 at Week 12: Mean (SD) [5]: −10.37 (9.46)
Change from Baseline in UAS7 at Week 12: LS Mean (SE) [6]: −16.30 (2.11)
Change from Baseline in UAS7 at Week 12: LS Mean Diff vs. placebo (95% CI) [6]: −5.88 (−11.58, −0.19)
Change from Baseline in UAS7 at Week 12: Mean (SD) [6]: −18.19 (11.00)
Change from Baseline in UAS7 at Week 12: LS Mean (SE) [7]: −15.12 (2.72)
Change from Baseline in UAS7 at Week 12: LS Mean Diff vs. placebo (95% CI) [7]: −3.56 (−11.91, 4.80)
Change from Baseline in UAS7 at Week 12: Mean (SD) [7]: −16.63 (13.80)
Change from Baseline in UAS7 at Week 12: LS Mean (SE) (Age group (years) ≥44 (Median), 400 mg QPM): −8.84 (2.81)

Reference: patent publication US20260256792A1, “TREATMENT OF CHRONIC SPONTANEOUS URTICARIA BY ADMINISTERING (R)-2-[3-[4-AMINO-3-(2-FLUORO-4-PHENOXY-PHENYL)PYRAZOLO[3,4-D]PYRIMIDIN-1-YL]PIPERIDINE-1-CARBONYL]-4-METHYL-4-[4-(OXETAN-3-YL)PIPERAZIN-1-YL]PENT-2-ENENITRILE” (priority 2023, published 2026)
